Laboratory results: publication PMC10746543, “Design principles for cyclin K molecular glue degraders” (Nature Chemical Biology, 2023)
Several values for one entry are separate records, joined by “and”; a condition that tells them apart may be missing. Equal entries are not always repeated. Where two headings read alike, the source gives them in different places.

Key:
[1] = system: HEK293T cells; test: Drug sensitivity assay (CellTiter-Glo viability) with or without MLN4924 pretreatment; assay type: cell-based, human; details: for EC50: Homo sapiens, HEK-293T
Method in brief: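 First, cells (HEK293T–Cas9, 0.15 × 10^6 ml^−1) are exposed to DMSO or 100 nM MLN4924. Next, drugs follow at 2 h. Finally, CellTiter-Glo is read at day 3 and normalised to DMSO.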

[2] = molecular target: T1, CDK2–cyclin A (Homo sapiens, UniProt P24941); test: Lanthascreen kinase binding assay, CDK2; details: for Lanthascreen signal, sheet CDK2: raw replicates, experiment r36-r46
T1 construct: purchased Thermo Fisher
Protocol: (§1) Lanthascreen experiments were performed using commercially available reagents (Thermo Fisher) and according to the manufacturer’s instructions.

[3] = molecular target: CDK12–cyclin K (Homo sapiens, UniProt Q9NYV4); test: Lanthascreen kinase binding assay, CDK12; details: for Lanthascreen raw signal, sheet CDK12: series r37, duplicates
CDK12–cyclin K, sequence (Q9NYV4 713-1052): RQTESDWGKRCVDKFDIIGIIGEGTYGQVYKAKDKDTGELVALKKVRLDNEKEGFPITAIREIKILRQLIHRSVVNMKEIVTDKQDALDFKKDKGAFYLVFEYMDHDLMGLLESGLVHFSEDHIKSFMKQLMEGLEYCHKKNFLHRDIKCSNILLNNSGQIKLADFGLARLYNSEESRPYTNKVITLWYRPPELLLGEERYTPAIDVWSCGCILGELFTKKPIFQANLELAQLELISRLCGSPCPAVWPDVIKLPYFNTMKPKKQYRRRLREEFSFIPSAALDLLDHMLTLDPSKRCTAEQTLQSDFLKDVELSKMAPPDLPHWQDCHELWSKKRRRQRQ
CDK12–cyclin K, sequence (O75909 1-267 partner limits assumed): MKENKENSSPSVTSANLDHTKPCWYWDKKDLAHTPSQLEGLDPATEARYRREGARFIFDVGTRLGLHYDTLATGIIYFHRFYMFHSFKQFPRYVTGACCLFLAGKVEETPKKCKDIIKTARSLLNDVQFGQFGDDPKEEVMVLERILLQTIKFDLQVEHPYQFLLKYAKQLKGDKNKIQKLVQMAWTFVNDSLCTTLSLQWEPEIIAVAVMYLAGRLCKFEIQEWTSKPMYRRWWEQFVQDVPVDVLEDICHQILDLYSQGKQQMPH
Protocol: as §1

[4] = molecular target: T2, CDK9–cyclin T (Homo sapiens, UniProt P50750); test: Lanthascreen kinase binding assay, CDK9; details: for Lanthascreen TR-FRET signal (raw ratio), sheet CDK9: third titration set (r25), duplicates
T2 construct: purchased Thermo Fisher
T2 sequence (P50750 whole entry): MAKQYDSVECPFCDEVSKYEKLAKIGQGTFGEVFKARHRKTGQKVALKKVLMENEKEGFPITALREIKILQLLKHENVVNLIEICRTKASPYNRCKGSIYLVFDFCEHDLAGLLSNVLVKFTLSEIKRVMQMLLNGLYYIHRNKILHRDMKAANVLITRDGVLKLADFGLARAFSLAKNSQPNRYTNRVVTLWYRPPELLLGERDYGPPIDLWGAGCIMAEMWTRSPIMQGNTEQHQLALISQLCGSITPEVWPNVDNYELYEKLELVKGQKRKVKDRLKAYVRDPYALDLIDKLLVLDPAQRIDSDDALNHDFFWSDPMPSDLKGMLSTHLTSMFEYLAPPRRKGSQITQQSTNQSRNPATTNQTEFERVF
T2 sequence (O60563 whole entry partner): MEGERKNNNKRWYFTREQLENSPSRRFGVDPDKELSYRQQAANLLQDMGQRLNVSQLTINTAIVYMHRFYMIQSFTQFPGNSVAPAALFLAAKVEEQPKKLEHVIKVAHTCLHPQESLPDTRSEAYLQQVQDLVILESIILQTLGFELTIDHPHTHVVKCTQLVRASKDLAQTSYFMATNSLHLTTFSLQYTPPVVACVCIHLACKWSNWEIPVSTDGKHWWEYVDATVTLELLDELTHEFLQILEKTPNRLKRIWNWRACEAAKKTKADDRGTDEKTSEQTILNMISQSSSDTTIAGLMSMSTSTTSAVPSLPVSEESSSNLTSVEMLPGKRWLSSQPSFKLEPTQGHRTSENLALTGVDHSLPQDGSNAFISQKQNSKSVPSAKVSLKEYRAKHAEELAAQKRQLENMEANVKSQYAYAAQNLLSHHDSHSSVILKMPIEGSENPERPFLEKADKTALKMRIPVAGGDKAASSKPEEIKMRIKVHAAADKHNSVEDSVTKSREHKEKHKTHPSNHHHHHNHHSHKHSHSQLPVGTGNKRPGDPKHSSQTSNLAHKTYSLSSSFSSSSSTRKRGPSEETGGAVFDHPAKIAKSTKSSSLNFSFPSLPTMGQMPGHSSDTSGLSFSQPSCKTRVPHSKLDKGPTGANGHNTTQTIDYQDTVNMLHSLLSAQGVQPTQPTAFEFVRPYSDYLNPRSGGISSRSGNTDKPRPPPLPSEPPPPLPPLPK
Protocol: as §1

[5] = molecular target: T3, CDK12–cyclin K and DDB1 (Homo sapiens, UniProt Q16531+Q9NYV4, K965R); test: TR-FRET ternary complex formation assay (compound titration); assay type: binding
T3 construct: His6–CDK12 (a.a. 713–1,052); full-length or beta-propeller B domain deletion (ΔBPB: a.a. 396–705 deleted) constructs of His6–DDB1ΔBPB, StrepII–Avi–DDB1, or His6–Spy–DDB1; made in house; host or cells: Trichoplusia ni High Five insect cells (baculovirus)
T3 sequence (Q9NYV4 713-1052 K965R): as the sequence (Q9NYV4 713-1052) above, with K253R counted along it
T3 sequence (O75909 1-267 partner): as the sequence (O75909 1-267 partner limits assumed) above
T3 sequence (Q16531 whole entry): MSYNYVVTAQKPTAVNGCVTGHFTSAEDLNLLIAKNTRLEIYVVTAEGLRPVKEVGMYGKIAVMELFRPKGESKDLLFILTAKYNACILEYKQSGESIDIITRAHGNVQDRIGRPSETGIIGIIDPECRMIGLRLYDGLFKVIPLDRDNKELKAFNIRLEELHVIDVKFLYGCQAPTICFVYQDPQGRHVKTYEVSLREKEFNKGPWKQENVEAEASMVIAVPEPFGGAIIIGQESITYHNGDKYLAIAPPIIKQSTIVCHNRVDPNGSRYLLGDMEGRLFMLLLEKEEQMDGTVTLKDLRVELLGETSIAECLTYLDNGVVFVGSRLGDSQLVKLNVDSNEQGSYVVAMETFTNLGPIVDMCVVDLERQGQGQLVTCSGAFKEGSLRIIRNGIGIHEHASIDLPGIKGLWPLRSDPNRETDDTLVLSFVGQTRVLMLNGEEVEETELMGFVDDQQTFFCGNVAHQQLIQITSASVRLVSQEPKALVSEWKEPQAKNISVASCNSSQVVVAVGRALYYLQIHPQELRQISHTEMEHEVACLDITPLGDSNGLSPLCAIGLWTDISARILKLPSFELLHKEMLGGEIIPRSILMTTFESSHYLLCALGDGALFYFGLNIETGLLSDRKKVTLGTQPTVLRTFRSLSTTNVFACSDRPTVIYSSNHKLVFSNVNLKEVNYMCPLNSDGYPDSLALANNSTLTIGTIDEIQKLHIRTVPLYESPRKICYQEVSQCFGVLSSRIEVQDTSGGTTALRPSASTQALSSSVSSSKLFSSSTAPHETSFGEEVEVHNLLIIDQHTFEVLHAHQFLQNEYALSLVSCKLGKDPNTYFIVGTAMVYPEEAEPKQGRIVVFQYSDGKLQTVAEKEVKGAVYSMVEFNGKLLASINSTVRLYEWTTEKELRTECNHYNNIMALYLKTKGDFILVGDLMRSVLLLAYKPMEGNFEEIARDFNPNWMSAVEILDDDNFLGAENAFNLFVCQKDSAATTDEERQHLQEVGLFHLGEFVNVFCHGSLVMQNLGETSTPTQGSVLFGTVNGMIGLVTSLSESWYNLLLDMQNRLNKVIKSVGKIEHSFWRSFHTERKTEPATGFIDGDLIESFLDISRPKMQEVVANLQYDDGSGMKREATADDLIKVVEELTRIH
Method in brief: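 Background fluorescence is reduced by reading 70 μs after excitation, and complex formation is followed as the 520:490 nm fluorescence ratio.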

[6] = system: cyclin K–eGFP degradation reporter; test: Cyclin K reporter stability analysis (dual-color cyclin K–eGFP reporter); assay type: cell-based, human; details: source data sheet correlations; read-out: DC50
Method in brief: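 Cells (HEK293T–Cas9, reporter-expressing) at 1 × 10^6 ml^−1; 5 h compound or DMSO; flow cytometry; gMFI eGFP ÷ mCherry on round mCherry-positive events; normalized to 3 DMSO controls.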

## Cn1cc(-n2cnc3c(NCc4ccc(-c5ccccn5)cc4)nc(N4CCOCC4)nc32)cn1 [DS21]
[1]; Supplementary Fig. 5, HEK293T, CellTiter Glo, 72h, pre-treatment with 100 nM MLN4924, read-out: Viability EC50, with MLN4924
  EC50: 4860 nM
[1]; Supplementary Table 2, HEK293T viability, 72 h, compound alone, read-out: Cellular assays EC50
  EC50: 4940 nM
[1]; Supplementary Table 2, MLN4924-mediated cytotoxicity rescue, 10 µM used where n.d.
  Toxicity rescue: 102%
[2]; Compound 0.038147 nM
  Lanthascreen signal, sheet CDK2: 0.01393 and 0.01328
[2]; Compound 0.152588 nM
  Lanthascreen signal, sheet CDK2: 0.01386 and 0.01382
[2]; Compound 0.610352 nM
  Lanthascreen signal, sheet CDK2: 0.01425 and 0.01382
[2]; Compound 9.76563 nM
  Lanthascreen signal, sheet CDK2: 0.01432 and 0.01375
[2]; Compound 39.0625 nM
  Lanthascreen signal, sheet CDK2: 0.01417 and 0.01371
[2]; Compound 156.25 nM
  Lanthascreen signal, sheet CDK2: 0.01414 and 0.0141
[2]; Compound 625 nM
  Lanthascreen signal, sheet CDK2: 0.01356 and 0.01358
[2]; Compound 2500 nM
  Lanthascreen signal, sheet CDK2: 0.0127 and 0.009084
[2]; Compound 10000 nM
  Lanthascreen signal, sheet CDK2: 0.01132 and 0.011
[2]; Lanthascreen, average, Extended Data Fig. 8, read-out: CDK2 IC50
  IC50: > 10000 nM
[2]; Supplementary Table 2, read-out: Lanthascreen IC50 [nM] CDK2
  IC50: > 10000 nM
[3]; Supplementary Table 2, read-out: Lanthascreen IC50 [nM] CDK12
  IC50: 2860 nM
[3]; compound 0.038147 nM
  Lanthascreen raw signal, sheet CDK12: 0.01384 and 0.01435
[3]; compound 0.152588 nM
  Lanthascreen raw signal, sheet CDK12: 0.01397 and 0.0142
[3]; compound 0.610352 nM
  Lanthascreen raw signal, sheet CDK12: 0.015 and 0.01469
[3]; compound 9.76563 nM
  Lanthascreen raw signal, sheet CDK12: 0.01433 and 0.01471
[3]; compound 39.0625 nM
  Lanthascreen raw signal, sheet CDK12: 0.01481 and 0.01445
[3]; compound 156.25 nM
  Lanthascreen raw signal, sheet CDK12: 0.01408 and 0.01362
[3]; compound 625 nM
  Lanthascreen raw signal, sheet CDK12: 0.01314 and 0.0125
[3]; compound 2500 nM
  Lanthascreen raw signal, sheet CDK12: 0.01076 and 0.01056
[3]; compound 10000 nM
  Lanthascreen raw signal, sheet CDK12: 0.008221 and 0.008078
[4]; Supplementary Table 2, read-out: Lanthascreen IC50 [nM] CDK9
  IC50: 953 nM
[4]; compound 0.038147 nM
  Lanthascreen TR-FRET signal (raw ratio), sheet CDK9: 0.01926 and 0.02033
[4]; compound 0.152588 nM
  Lanthascreen TR-FRET signal (raw ratio), sheet CDK9: 0.01912 and 0.02064
[4]; compound 0.610352 nM
  Lanthascreen TR-FRET signal (raw ratio), sheet CDK9: 0.01926 and 0.02032
[4]; compound 9.76563 nM
  Lanthascreen TR-FRET signal (raw ratio), sheet CDK9: 0.01956 and 0.02095
[4]; compound 39.0625 nM
  Lanthascreen TR-FRET signal (raw ratio), sheet CDK9: 0.01859 and 0.0203
[4]; compound 156.25 nM
  Lanthascreen TR-FRET signal (raw ratio), sheet CDK9: 0.01696 and 0.01861
[4]; compound 625 nM
  Lanthascreen TR-FRET signal (raw ratio), sheet CDK9: 0.01333 and 0.0154
[4]; compound 2500 nM
  Lanthascreen TR-FRET signal (raw ratio), sheet CDK9: 0.009112 and 0.01043
[4]; compound 10000 nM
  Lanthascreen TR-FRET signal (raw ratio), sheet CDK9: 0.007018 and 0.007122
[5]; compound concentration 4.68 nM, raw replicate titration data
  TR-FRET signal at compound concentration 4.68 nM: 0.1432 and 0.1661
[5]; compound concentration 21.6 nM, raw replicate titration data
  TR-FRET signal at compound concentration 21.6 nM: 0.2041 and 0.2174
[5]; compound concentration 36 nM, raw replicate titration data
  TR-FRET signal at compound concentration 36 nM: 0.3026 and 0.3362
[5]; compound concentration 79.2001 nM, raw replicate titration data
  TR-FRET signal at compound concentration 79.2001 nM: 0.4985 and 0.5183
[5]; compound concentration 158.4 nM, raw replicate titration data
  TR-FRET signal at compound concentration 158.4 nM: 0.7975 and 0.8115
[5]; compound concentration 309.6 nM, raw replicate titration data
  TR-FRET signal at compound concentration 309.6 nM: 1.104 and 1.124
[5]; compound concentration 626.401 nM, raw replicate titration data
  TR-FRET signal at compound concentration 626.401 nM: 1.537 and 1.587
[5]; compound concentration 1252.8 nM, raw replicate titration data
  TR-FRET signal at compound concentration 1252.8 nM: 1.789 and 1.917
[5]; compound concentration 2448 nM, raw replicate titration data
  TR-FRET signal at compound concentration 2448 nM: 1.994 and 2.074
[5]; compound concentration 9936.01 nM, raw replicate titration data
  TR-FRET signal at compound concentration 9936.01 nM: 2.1 and 2.149
[5]; compound concentration 20016 nM, raw replicate titration data
  TR-FRET signal at compound concentration 20016 nM: 2.044 and 2.1355
[5]; in vitro TR-FRET
  DDB1–CDK12 complex formation, result in words: poorer glues
[5]; sheet MOESM7, read-out: log TR-FRET EC50 (converted)
  EC50: 299 nM
[5]; source data sheet correlations, read-out: TR-FRET EC50
  EC50: 299 nM
[6]
  DC50: 3120 nM
